Values quoted from earlier work in patent publication US20240352228A1, “NOVEL FLAME RETARDANT” (Chemische Fabrik Budenheim KG, priority 2021, published 2024).

Conditions: general statement in description, no method given

decomposition temperature: > 350 °C
SMILES: Nc1nc(N)nc(N)n1 [melamine, Melamine]
